pKi: −log10 of the molar value.
What was measured:
SH-SY5Y cells = assay: Thapsigargin treated cell death assay in SH-SY5Y cells; format: cell-based, human; settings: compound at 10 μM; positive = protection from cell death, negative = compound toxicity
Description: Thapsigargin raises intracellular free calcium (Ca^2+) by potently inhibiting the endoplasmic reticulum Ca-ATPase, which sequesters Ca^2+ from the cytosol. The increased cytosolic Ca^2+ concentration is buffered by mitochondria by exchanging Ca^2+ for K, leading to depolarisation in the inner mitochondrial membrane and permeability transition.
The thapsigargin treated Jurkat cell death assay is a homogeneous 96 well plate based assay for cell death, instigated by the opening of the mitochondrial permeability transition pore (MPTP). The addition of thapsigargin to Jurkat cells results in an influx of calcium, the increase in intracellular calcium will initially be buffered by the mitochondria, but eventually the increasing calcium concentration will result in the opening of the MPTP, resulting in cell death.
CellTox™ Green is a dye which is unable to enter the cell until cell death leads to the loss of membrane integrity. Once this happens the CellTox™ Green enters the cell, binds to the cell's DNA and emits a fluorescent signal. […] Unless otherwise stated, the assay is typically run using a range of three compound concentrations of 1, 3 and 10 μM in triplicate and is read kinetically over a period of 24 hours. Compounds are added 30 minutes before the addition of thapsigargin. Compound only controls and positive control, cyclosporin A (CsA) (3 and 10 μM) are also included in the assay. Results are typically calculated at the 8 hour time point and the kinetic data is also reported.
The assay is carried out as described for the Jurkat cells but using the SH-SY5Y (human neuroblastoma) cell line instead of Jurkat cells. The results are shown in the fourth column of Table 5 (SY5Y [10 μM]% recovery). Positive numbers indicate protection from cell death, negative numbers indicate compound toxicity.

cyclophilin D = cyclophilin D (Homo sapiens (Human), UniProt P30405); assay: Functional peptidyl prolyl isomerase (PPIase) spectrophotometric assay, cyclophilin D; format: biochemical; settings: second value of CypA/D cell; read-out: Ki CypD
Description: (§1) Cyclophilins are enzymes that catalyse the cis-trans isomerisation of peptide bonds to the amino acid proline. This event is important in many biological processes, including protein folding and signal transduction. […] The method to measure this activity and its inhibition is similar to that described by Jankowski (Analytical Biochemistry, 252, 2, 299-307 (1997)). The assay measures the cis to trans isomerisation of a peptide substrate catalysed by a PPlase enzyme using a UV/Vis spectrophotometer. This assay is a manual single cuvette-based assay. A first order rate equation is fitted to the absorbance data to obtain a rate constant. The catalytic rate is calculated from the enzymatic rate minus the background rate. The Ki (the concentration required to produce half maximum inhibition) for an inhibitor is obtained from the rate constant plotted against the inhibitor concentration. Typically, a 6-point dose response curve is obtained from duplicates and a Ki determined. Data are given in Table 5 as Ki [nM] for cyclophilins A and D, expressed in column 2 of Table 5 as Ki (cypA)/Ki (cypD).

[1] = system: permeabilised HepG2 cells; assay: Calcium retention capacity (CRC) assay in permeabilised HepG2 cells (MPTP opening); format: cell-based, human; design: CRC [10 μM]: unit not given here; settings: compound at 10 μM; for CRC [10 μM]: digitonin permeabilised HepG2 cells; for CRC [10 μM] (ratio vs CsA): normalised to cyclosporin A, value in brackets
Procedure: The use of permeabilised cells means that inhibitory compounds that may not normally enter non-permeabilised cells are more likely to be active.
The calcium retention capacity (CRC) is a measure of the capability of mitochondria to retain calcium, primarily in the form of calcium phosphates, in the mitochondrial matrix.
In a CRC assay, the calcium indicator Calcium Green-5N (InVitrogen) is utilized. […] The assay is carried out in HepG2 (human hepatocellular carcinoma) cells which are digitonin permeabilized. Trains of calcium pulses (typically 5 μM additions) are added which results in a sudden increase in fluorescence which is then reduced by mitochondrial buffering. The cells will reach a point at which the calcium addition is no longer buffered, an indication that the MPTP has opened (mitochondrial permeability transition).
The experiment is performed with and without inhibitor. A compound that acts to inhibit the mitochondrial pore opening will result in a greater requirement for calcium to reach the transition point. The results are normalised to a positive control (cyclosporin A) in each experiment. The results are shown in column 3 of Table 5 as CRC [10 μM] (ratio vs CsA). The method of digitonin permeabilised whole cell CRC assay is similar to that used by Chiara et al. (PLoS One, March, 3, 3, e1852 (2008)).

cyclophilin A = cyclophilin A (Homo sapiens (Human), UniProt P62937); assay: Functional peptidyl prolyl isomerase (PPIase) spectrophotometric assay, cyclophilin A; format: biochemical; settings: first value of CypA/D cell
Description: as §1

cyclophilin A, sequence (P62937 whole entry, species assumed): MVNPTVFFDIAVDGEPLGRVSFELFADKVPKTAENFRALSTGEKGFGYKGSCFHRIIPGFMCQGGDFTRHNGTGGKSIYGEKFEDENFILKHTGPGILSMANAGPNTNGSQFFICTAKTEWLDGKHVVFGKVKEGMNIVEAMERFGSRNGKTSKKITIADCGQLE
cyclophilin D, sequence (P30405 30-207, species assumed): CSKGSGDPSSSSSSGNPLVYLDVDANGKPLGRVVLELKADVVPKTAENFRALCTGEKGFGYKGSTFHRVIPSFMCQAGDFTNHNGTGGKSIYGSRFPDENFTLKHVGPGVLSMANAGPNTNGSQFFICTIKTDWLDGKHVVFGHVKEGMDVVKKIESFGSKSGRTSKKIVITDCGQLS

| pKi (cyclophilin D) | pKi (cyclophilin A) | SMILES | SYSY [10 μM] % recovery (SH-SY5Y cells) [%] | CRC [10 μM] [1] | CRC [10 μM] (ratio vs CsA) [1] |
| --- | --- | --- | --- | --- | --- |
| 6.80 | 6.82 | C[C@@H]1NC(=O)[C@H](C[C@H]2CCCN(C)C2)OC(=O)C(C)(C)/C=C/c2ccc3ccc(nc3c2)N(C)NC(=O)[C@@H]2CCCN(N2)C1=O [Compound (37)] | 41 | 5 | 0.33 |
| 7.40 | 7.36 | C[C@@H]1NC(=O)C(Cc2ccc(N)nc2)OC(=O)C(C)(C)/C=C/c2ccc3ccc(nc3c2)N(C)NC(=O)[C@@H]2CCCN(N2)C1=O (some centres unmarked) [Compound (43)] | 10 | 10 | 0.67 |
| 8.60 | 8.52 | C[C@@H]1NC(=O)[C@H](Cc2ccc(NS(C)(=O)=O)cc2)OC(=O)C(C)(C)/C=C/c2ccc3ccc(nc3c2)N(C)NC(=O)[C@@H]2CCCN(N2)C1=O [Compound (46)] | 29 | 25 | 1.00 |
| 7.96 | 7.59 | C[C@@H]1NC(=O)[C@H](CN2CCNCC2)OC(=O)C(C)(C)/C=C/c2ccc3ccc(nc3c2)N(C)NC(=O)[C@@H]2CCCN(N2)C1=O [Compound (48)] | 46 | 10 | 0.5 |
| 7.85 | 7.66 | CC(C)C(=O)Nc1cccc(C[C@@H]2OC(=O)C(C)(C)/C=C/c3ccc4ccc(nc4c3)N(C)NC(=O)[C@@H]3CCCN(N3)C(=O)[C@H](C)NC2=O)c1 [Compound (49)] | 40 | 20 | 1.00 |
| 8.80 | 8.62 | C[C@@H]1NC(=O)[C@H](Cc2cccc(N)c2)OC(=O)C(C)(C)/C=C/c2ccc3ccc(nc3c2)N(C)NC(=O)[C@@H]2CCCN(N2)C1=O [Compound (50)] | 25 | 20 | 1.00 |
| 7.55 | 7.82 | C[C@@H]1NC(=O)[C@H](CCl)OC(=O)C(C)(C)/C=C/c2ccc3ccc(nc3c2)N(C)NC(=O)[C@@H]2CCCN(N2)C1=O [Compound (53)] | 21 | 25 | 0.83 |
| 6.15 | 7.44 | C[C@@H]1NC(=O)[C@H](CCC(N)=O)OC(=O)C(C)(C)/C=C/c2ccc3ccc(nc3c2)N(C)NC(=O)[C@@H]2CCCN(N2)C1=O [Compound (54)] | 10 | 15 | 0.50 |
| 5.72 | 6.96 | C[C@@H]1NC(=O)[C@H](CCCN)OC(=O)C(C)(C)/C=C/c2ccc3ccc(nc3c2)N(C)NC(=O)[C@@H]2CCCN(N2)C1=O [Compound (55)] | 37 | 5 | 0.25 |
| 7.25 | 6.53 | C[C@@H]1NC(=O)[C@H](CC2CCCNC2)OC(=O)C(C)(C)/C=C/c2ccc3ccc(nc3c2)N(C)NC(=O)[C@@H]2CCCN(N2)C1=O (some centres unmarked) [Compound (56)] | 15 | 8 | 0.36 |
| 8.12 | 8.11 | C[C@@H]1NC(=O)[C@H](C[C@@H]2CCCNC2)OC(=O)C(C)(C)/C=C/c2ccc3ccc(nc3c2)N(C)NC(=O)[C@@H]2CCCN(N2)C1=O [Compound (57)] | 48.48 | 15 | 0.75 |
| 8.02 | 8.89 | COc1ccc(C[C@@H]2OC(=O)C(C)(C)/C=C/c3ccc4ccc(nc4c3)N(C)NC(=O)[C@@H]3CCCN(N3)C(=O)[C@H](C)NC2=O)cc1 [Compound (60)] | 37 | 25 | 0.80 |
| 8.37 | 8.73 | CC(C)[C@@H]1OC(=O)C(C)(C)/C=C/c2ccc3ccc(nc3c2)N(C)NC(=O)[C@@H]2CCCN(N2)C(=O)[C@H](CCCCNCc2ccc3ccccc3c2)NC1=O [Compound (61)] | 35 | 20 | 0.78 |
| 7.82 | 7.96 | CC(C)[C@@H]1OC(=O)C(C)(C)/C=C/c2ccc3ccc(nc3c2)N(C)NC(=O)[C@@H]2CCCN(N2)C(=O)[C@H](CCC(=O)Nc2ccccc2)NC1=O [Compound (63)] | 48 | 30 | 1.00 |
| 7.23 | 8.29 | CC(C)[C@@H]1OC(=O)C(C)(C)/C=C/c2ccc3ccc(nc3c2)N(C)NC(=O)[C@@H]2CCCN(N2)C(=O)[C@H](CCC(=O)N(C)c2ccccc2)NC1=O [Compound (64)] | 44 | 25 | 1.00 |
| 7.66 | 7.85 | CC(C)[C@@H]1OC(=O)C(C)(C)/C=C/c2ccc3ccc(nc3c2)N(C)NC(=O)[C@@H]2CCCN(N2)C(=O)[C@H](CCC(=O)NCc2cccnc2)NC1=O [Compound (65)] | 51 | 20 | 0.90 |
| 8.18 | 8.44 | CC(C)[C@@H]1OC(=O)C(C)(C)/C=C/c2ccc3ccc(nc3c2)N(C)NC(=O)[C@@H]2CCCN(N2)C(=O)[C@H](CCC(=O)N[C@H](C)c2ccccc2)NC1=O [Compound (66)] | 63 | 25 | 0.80 |
| 7.59 | 7.40 | CC(C)[C@@H]1OC(=O)C(C)(C)/C=C/c2ccc3ccc(nc3c2)N(C)NC(=O)[C@@H]2CCCN(N2)C(=O)[C@H](CCC(=O)NCC2CCOCC2)NC1=O [Compound (67)] | 52 | 25 | 1.00 |
| 8.00 | 7.80 | CC(C)[C@@H]1OC(=O)C(C)(C)/C=C/c2ccc3ccc(nc3c2)N(C)NC(=O)[C@@H]2CCCN(N2)C(=O)[C@H](CCC(=O)NCc2cnn(C)c2)NC1=O [Compound (68)] | 37 | 25 | 0.83 |
| 7.39 | 7.47 | CC(C)[C@@H]1OC(=O)C(C)(C)/C=C/c2ccc3ccc(nc3c2)N(C)NC(=O)[C@@H]2CCCN(N2)C(=O)[C@H](CCC(=O)N2CCNCC2)NC1=O [Compound (69)] | 17 | 20 | 0.80 |
| 7.28 | 8.17 | CC(C)[C@@H]1OC(=O)C(C)(C)/C=C/c2ccc3ccc(nc3c2)N(C)NC(=O)[C@@H]2CCCN(N2)C(=O)[C@H](CCC(=O)N2CCN(C)CC2)NC1=O [Compound (70)] | 44 | 25 | 1.00 |
| 7.80 | 7.29 | CC(C)[C@@H]1OC(=O)C(C)(C)/C=C/c2ccc3ccc(nc3c2)N(C)NC(=O)[C@@H]2CCCN(N2)C(=O)[C@H](CCC(=O)NC2CCN(C)CC2)NC1=O [Compound (71)] | 4 | 18.3 | 0.76 |
